# According to article PMC12730265, “Combinatorial Antimicrobial Effects of Imidazolium-Based Ionic Liquids and Antifungals on Model Fungal Organisms” (Biomolecules, 2025):
# Tests used:
# HeLa cells = test: Checkerboard cytotoxicity assay IL + Clotrimazole, CellTiter-Blue
# Procedure: HeLa cells (Kyoto line) were grown at 37 °C in 5% CO2 using DMEM media with 4.5 g/L glucose + Sodium Pyruvate + L-Glutamine (VWRV02-0101) with 10% FBS. Antibiotics such as Pen/Strep were not used during treatment with ILs or AFs to exclude the possibility of interaction with other antibiotics. HeLa cells were grown to 70–90% confluency in T75 dishes; cells were dissociated with Trypsin/EDTA […] for 3 min and resuspended in 25 mL DMEM +10% FBS; 180 μL cells in media were added to each of the 96 wells on the plasma-treated culture plate and incubated at 37 °C overnight. Solutions of Clotrimazole plus either [HMIM]Cl and [OMIM]Cl were created and 20 μL of IL, AF, or IL + AF were added to 96-well plate and incubated at 37 °C for 24 h. Promega CellTiter-Blue Cell Viability reagent was used to evaluate cytotoxicity in accordance with the manufacturer’s guidelines. For each well, 20 μL of CellTiter-Blue was added and then the plates were incubated for either 1, 2, or 4 h and fluorescence was measured at Ex/EM 485/590 nm using a Biotek Synergy HT fluorometer Winooski, VT USA. EC50 and FIC calculations were performed using these treatments. EC50 calculations were performed using ATTB Bioquest online EC50 calculator and FIC scores were calculated as described in Doern et al..
# One open question is whether addition of either of these ILs at sub-cytotoxic concentrations can improve effectiveness of AFs in fungi vs. mammalian cells. To evaluate this, we performed checkerboard assays for both [HMIM]Cl and [OMIM]Cl in the presence of Clotrimazole and calculated FIC scores as described in C. albicans checkerboard assays.
# S. cerevisiae = test: Kirby–Bauer disk diffusion assay on IL-containing YPD plates; assay type: cell-based; conditions: for Zone of inhibition (ZOI) diameter: 100 = no growth on plate
# Procedure: Assessment of fungal growth on YPD plates with AFs + ILs served as an indicator for the combined efficacy of treatment of ILs and AFs. YPD agar plates were made with addition of increasing concentrations of [HMIM]Cl at 0, 2.5, 6.25, and 25 mM or [OMIM]Cl at 0, 0.25, 0.625, and 2.5 mM. Plates solidified and dried on bench for 24 h before use. IN total, 400 μL of S. cerevisiae or C. albicans liquid culture at mid-log phase OD600 0.5 was spread using sterile glass beads to achieve even distribution. Following addition of culture, the plates were allowed to dry for 30 min before the addition of antifungal disks. Antifungal-infused disks were prepared using the stock solutions of solubilized antibiotics; 15 μL of each of the 4 azole antifungals at stock concentrations was pipetted onto a sterile 6 mm cellulose disk (BD). […] After plate drying was complete, sterile forceps were used to transfer the disks to the media, and the plate was grown upright in an incubator overnight at 30 °C. The following day, photographs were taken of the plates to visualize the zone of inhibition (ZOI) created by the combined treatment. Adobe Illustrator 2023 CC was used to perform digital measurements of ZOI diameters.
# To assess the potential for combinatorial effects of ILs and AFs in yeast, Kirby–Bauer disk diffusion assays were performed for C. albicans and S. cerevisiae for [HMIM]Cl and [OMIM]Cl with all four AFs. […] The addition of 6 mm cellulose disks infused with equal volumes of solubilized AFs to the plates occurred after plating of C. albicans or S. cerevisiae, allowing for growth for 48 h at 23 °C, at which point the plates were evaluated for the establishment of zones of inhibition (ZOI). Digital pictures were acquired of all plates, and measurements of ZOI diameter were performed digitally as described in the Methods. […] With progressively increasing amounts of both [HMIM]Cl and [OMIM]Cl, ZOIs increased for all Afs, including Fluconazole and Itraconazole, which appear to be ineffective without IL in the Kirby–Bauer disk assay. Experiments were performed in triplicate and ZOIs were measured for all plates.
# Similar experiments testing the combinatorial effects of [HMIM]Cl or [OMIM]Cl were performed on S. cerevisiae using Kirby–Bauer disk assays and quantified for changes in ZOI (Appendix Figure A1). ZOI measurements (mm) from both C. albicans and S. cerevisiae were compiled, and the averages are shown numerically as well as with shading and plotted in Figure 3. […] Finally, at intermediate concentrations of both [HMIM]Cl and [OMIM]Cl, a combinatorial effect of IL + AF was evident for all four AFs in S. cerevisiae, similar to observations in C. albicans.
smiles,measurement,setting,value
Clc1ccccc1C(c1ccccc1)(c1ccccc1)n1ccnc1 [Clotrimazole],"Clotrimazole concentration used for FIC, alone","HeLa cells; human, 24 h",250 mg/L
same,Zone of inhibition (ZOI) diameter,S. cerevisiae; [HMIM]Cl 0 mM in plate,21.67 mm
same,Zone of inhibition (ZOI) diameter,S. cerevisiae; [HMIM]Cl 2.5 mM in plate,26.67 mm
same,Zone of inhibition (ZOI) diameter,S. cerevisiae; [HMIM]Cl 6.25 mM in plate,50.33 mm
same,Zone of inhibition (ZOI) diameter,S. cerevisiae; [HMIM]Cl 25 mM in plate,100 mm
same,Zone of inhibition (ZOI) diameter,S. cerevisiae; [OMIM]Cl 0 M in plate,21.67 mm
same,Zone of inhibition (ZOI) diameter,S. cerevisiae; [OMIM]Cl 0.25 mM in plate,30 mm
same,Zone of inhibition (ZOI) diameter,S. cerevisiae; [OMIM]Cl 0.625 mM in plate,47.33 mm
same,Zone of inhibition (ZOI) diameter,S. cerevisiae; [OMIM]Cl 2.5 mM in plate,100 mm
"CCCCCCn1cc[n+](C)c1.[Cl-] [[HMIM]Cl, 1-hexyl-3-methylimidazolium chloride]","IL concentration used for FIC, IL alone","HeLa cells; human, 24 h",12.5 mM
same,"IL concentration used for FIC, in combination","HeLa cells; human, 24 h",12.5 mM
same,growth of S. cerevisiae on IL plate,S. cerevisiae; plates with 25 mM [HMIM]Cl,complete inability to grow
"CCCCCCCCn1cc[n+](C)c1.[Cl-] [[OMIM]Cl, 1-octyl-3-methylimidazolium chloride]","IL concentration used for FIC, IL alone",HeLa cells; IL alone,3.125 mM
same,Cell Titer Blue Assay plate reading,"HeLa cells; OMIM[Cl] 0.195312, Clotrimazole 0.03125 mg/mL",553
same,Cell Titer Blue Assay plate reading,"HeLa cells; OMIM[Cl] 0.195312, Clotrimazole 0.0625 mg/mL",506
same,Cell Titer Blue Assay plate reading,"HeLa cells; OMIM[Cl] 0.195312, Clotrimazole 0.125 mg/mL",440
same,Cell Titer Blue Assay plate reading,"HeLa cells; OMIM[Cl] 0.195312, Clotrimazole 0.25 mg/mL",135
same,Cell Titer Blue Assay plate reading,"HeLa cells; OMIM[Cl] 0.195312, Clotrimazole 0.5 mg/mL",30
same,Cell Titer Blue Assay plate reading,"HeLa cells; OMIM[Cl] 0.195312, PBS instead of Clotrimazole",524
same,Cell Titer Blue Assay plate reading,"HeLa cells; OMIM[Cl] 0.390625, Clotrimazole 0.03125 mg/mL",343
same,Cell Titer Blue Assay plate reading,"HeLa cells; OMIM[Cl] 0.390625, Clotrimazole 0.0625 mg/mL",333
same,Cell Titer Blue Assay plate reading,"HeLa cells; OMIM[Cl] 0.390625, Clotrimazole 0.125 mg/mL",92
same,Cell Titer Blue Assay plate reading,"HeLa cells; OMIM[Cl] 0.390625, Clotrimazole 0.25 mg/mL",161
same,Cell Titer Blue Assay plate reading,"HeLa cells; OMIM[Cl] 0.390625, Clotrimazole 0.5 mg/mL",31
same,Cell Titer Blue Assay plate reading,"HeLa cells; OMIM[Cl] 0.390625, PBS instead of Clotrimazole",533
same,Cell Titer Blue Assay plate reading,"HeLa cells; OMIM[Cl] 0.78125, Clotrimazole 0.03125 mg/mL",128
same,Cell Titer Blue Assay plate reading,"HeLa cells; OMIM[Cl] 0.78125, Clotrimazole 0.0625 mg/mL",121
same,Cell Titer Blue Assay plate reading,"HeLa cells; OMIM[Cl] 0.78125, Clotrimazole 0.125 mg/mL",60
same,Cell Titer Blue Assay plate reading,"HeLa cells; OMIM[Cl] 0.78125, Clotrimazole 0.25 mg/mL",66
same,Cell Titer Blue Assay plate reading,"HeLa cells; OMIM[Cl] 0.78125, Clotrimazole 0.5 mg/mL",32
same,Cell Titer Blue Assay plate reading,"HeLa cells; OMIM[Cl] 0.78125, PBS instead of Clotrimazole",180
same,Cell Titer Blue Assay plate reading,"HeLa cells; OMIM[Cl] 1.5625, Clotrimazole 0.03125 mg/mL",126
same,Cell Titer Blue Assay plate reading,"HeLa cells; OMIM[Cl] 1.5625, Clotrimazole 0.0625 mg/mL",45
same,Cell Titer Blue Assay plate reading,"HeLa cells; OMIM[Cl] 1.5625, Clotrimazole 0.125 mg/mL",58
same,Cell Titer Blue Assay plate reading,"HeLa cells; OMIM[Cl] 1.5625, Clotrimazole 0.25 mg/mL",33
same,Cell Titer Blue Assay plate reading,"HeLa cells; OMIM[Cl] 1.5625, Clotrimazole 0.5 mg/mL",36
same,Cell Titer Blue Assay plate reading,"HeLa cells; OMIM[Cl] 1.5625, PBS instead of Clotrimazole",206
same,Cell Titer Blue Assay plate reading,"HeLa cells; OMIM[Cl] 3.125, Clotrimazole 0.03125 mg/mL",47
same,Cell Titer Blue Assay plate reading,"HeLa cells; OMIM[Cl] 3.125, Clotrimazole 0.0625 mg/mL",37
same,Cell Titer Blue Assay plate reading,"HeLa cells; OMIM[Cl] 3.125, Clotrimazole 0.125 mg/mL",36
same,Cell Titer Blue Assay plate reading,"HeLa cells; OMIM[Cl] 3.125, Clotrimazole 0.25 mg/mL",36
same,Cell Titer Blue Assay plate reading,"HeLa cells; OMIM[Cl] 3.125, Clotrimazole 0.5 mg/mL",38
same,Cell Titer Blue Assay plate reading,"HeLa cells; OMIM[Cl] 3.125, PBS instead of Clotrimazole",47
same,Cell Titer Blue Assay plate reading,"HeLa cells; OMIM[Cl] 6.25, Clotrimazole 0.03125 mg/mL",41
same,Cell Titer Blue Assay plate reading,"HeLa cells; OMIM[Cl] 6.25, Clotrimazole 0.0625 mg/mL",38
same,Cell Titer Blue Assay plate reading,"HeLa cells; OMIM[Cl] 6.25, Clotrimazole 0.125 mg/mL",39
same,Cell Titer Blue Assay plate reading,"HeLa cells; OMIM[Cl] 6.25, Clotrimazole 0.25 mg/mL",39
same,Cell Titer Blue Assay plate reading,"HeLa cells; OMIM[Cl] 6.25, Clotrimazole 0.5 mg/mL",40
same,Cell Titer Blue Assay plate reading,"HeLa cells; OMIM[Cl] 6.25, PBS instead of Clotrimazole",41
same,Cell Titer Blue Assay plate reading,"HeLa cells; OMIM[Cl] 12.5, Clotrimazole 0.03125 mg/mL",39
same,Cell Titer Blue Assay plate reading,"HeLa cells; OMIM[Cl] 12.5, Clotrimazole 0.0625 mg/mL",39
same,Cell Titer Blue Assay plate reading,"HeLa cells; OMIM[Cl] 12.5, Clotrimazole 0.125 mg/mL",38
same,Cell Titer Blue Assay plate reading,"HeLa cells; OMIM[Cl] 12.5, Clotrimazole 0.25 mg/mL",37
same,Cell Titer Blue Assay plate reading,"HeLa cells; OMIM[Cl] 12.5, Clotrimazole 0.5 mg/mL",40
same,Cell Titer Blue Assay plate reading,"HeLa cells; OMIM[Cl] 12.5, PBS instead of Clotrimazole",38
same,growth of S. cerevisiae on IL plate,S. cerevisiae; plates with 2.5 mM [OMIM]Cl,complete inability to grow
